Measurements: DBAASP
Values after ≈ are worked out from the molar mass of the structure shown. Values joined by “and” are separate entries in the source; they are usually repeats but may differ in a detail not shown here. Identical values can stand only once.

Columns and labels:
Experiment in all cases: ≥ marks a high value that may be exact or a test limit, other limits are often not marked, values filed in µg/mL are converted to µM
Escherichia coli 078 = tested on: Escherichia coli 078
Escherichia coli 987P = tested on: Escherichia coli 987P
Escherichia coli K88 = tested on: Escherichia coli K88
Escherichia coli K99 = tested on: Escherichia coli K99
Escherichia coli UB1005 = tested on: Escherichia coli UB1005
[1] = tested on: Lacticaseibacillus rhamnosus 1.0385
[2] = tested on: Lacticaseibacillus rhamnosus 1.0386
[3] = tested on: Lacticaseibacillus rhamnosus 1.0911
[4] = tested on: Lacticaseibacillus rhamnosus 1.9205
[5] = tested on: Lacticaseibacillus rhamnosus 7469
[6] = tested on: Lactiplantibacillus plantarum 8014
[7] = tested on: Pseudomonas aeruginosa ATCC 27853
[8] = tested on: Salmonella enterica subsp. enterica serovar Typhimurium C77-31
[9] = tested on: Staphylococcus aureus ATCC 25923
[10] = tested on: Staphylococcus aureus ATCC 29213
[11] = tested on: Staphylococcus epidermidis ATCC 12228
[12] = tested on: Streptococcus agalactiae ATCC 13813
[13] = tested on: Candida albicans NCYC 1467
[14] = tested on: Enterococcus faecalis NCTC 12697
[15] = tested on: Escherichia coli NCTC 10418
[16] = tested on: Klebsiella pneumoniae ATCC 43816
[17] = tested on: Staphylococcus aureus NCTC 10788
[18] = tested on: Staphylococcus aureus NCTC 12493
Escherichia coli BL21 = tested on: Escherichia coli BL21
[19] = tested on: Pseudomonas aeruginosa PAO1
[20] = tested on: Staphylococcus aureus ATCC 6538P
[21] = tested on: Staphylococcus aureus ATCC BAA-41
[22] = tested on: Staphylococcus epidermidis
[23] = tested on: Acinetobacter baumannii ATCC 19606
[24] = tested on: Escherichia coli D31 CGSC 5165
[25] = tested on: Pseudomonas aeruginosa ATCC 47085
[26] = tested on: Staphylococcus aureus ATCC 35556
[27] = tested on: Acinetobacter baumannii BCRC 14B0100
[28] = tested on: Bacillus subtilis CICC 24434
Escherichia coli E44813 = tested on: Escherichia coli E44813
[29] = tested on: Listeria monocytogenes CICC 21533
[30] = tested on: Pasteurella multocida C48-3
[31] = tested on: Salmonella enterica subsp. enterica serovar Choleraesuis C78-1
[32] = tested on: Salmonella typhimurium SL1344
[33] = tested on: Shigella flexneri CICC 21534
[34] = tested on: Staphylococcus epidermidis LY8

CC[C@H](C)[C@H](NC(=O)[C@H](CCCCN)NC(=O)[C@@H](NC(=O)[C@@H](N)Cc1c[nH]c2ccccc12)[C@@H](C)CC)C(=O)N[C@@H](Cc1c[nH]c2ccccc12)C(=O)N[C@@H](CCCCN)C(=O)N[C@@H](CCCCN)C(=O)N[C@H](C(=O)N[C@H](C(=O)N[C@@H](CCCCN)C(=O)N[C@@H](CCCCN)C(=O)N[C@@H](Cc1c[nH]c2ccccc12)C(=O)N[C@@H](CCCCN)C(=O)N[C@@H](CCCCN)C(=O)O)[C@@H](C)CC)[C@@H](C)CC [WIKIWKKIIKKWKK]
MIC (Escherichia coli 078): 16 µM (≈ 30.8 µg/mL) | MIC (Escherichia coli 987P): 2 µM (≈ 3.85 µg/mL) | MIC (Escherichia coli K88): 8 µM (≈ 15.4 µg/mL) | MIC (Escherichia coli K99): 4 µM (≈ 7.71 µg/mL) | MIC (Escherichia coli UB1005): 8 µM (≈ 15.4 µg/mL) | MIC [1]: ≥ 128 µM | MIC [2]: ≥ 128 µM | MIC [3]: ≥ 128 µM | MIC [4]: ≥ 128 µM | MIC [5]: ≥ 128 µM | MIC [6]: ≥ 128 µM | MIC [7]: 4 µM (≈ 7.71 µg/mL) | MIC [8]: ≥ 128 µM | MIC [9]: 8 µM (≈ 15.4 µg/mL) | MIC [10]: 4 µM (≈ 7.71 µg/mL) | MIC [11]: 4 µM (≈ 7.71 µg/mL) | MIC [12]: 8 µM (≈ 15.4 µg/mL)

CC[C@H](C)[C@@H]1NC(=O)[C@H](C)NC(=O)[C@@H](NC(=O)[C@H](Cc2ccccc2)NC(=O)[C@@H](NC(=O)[C@H](CCCCN)NC(=O)[C@H](Cc2c[nH]c3ccccc23)NC(=O)[C@@H]2CCCN2C(=O)[C@H](Cc2c[nH]c3ccccc23)NC(=O)[C@H](Cc2ccccc2)NC(=O)[C@@H](N)CCCCN)[C@@H](C)CC)CSSC[C@@H](C(=O)O)NC(=O)[C@H](CCCCN)NC(=O)[C@H](CCCCN)NC(=O)[C@H]([C@@H](C)O)NC1=O [KFWPWKIFCAITKKC]
MIC [13]: 8 µM (≈ 15.2 µg/mL) | MIC [14]: ≥ 256 µM | MIC [15]: 16 µM (≈ 30.4 µg/mL) | MIC [16]: ≥ 32 µM | MIC [7]: 64 µM (≈ 121 µg/mL) | MIC [17]: 8 µM (≈ 15.2 µg/mL) | MIC [18]: 8 µM (≈ 15.2 µg/mL)

CC[C@H](C)[C@H](NC(=O)[C@H](CCCCN)NC(=O)[C@H](CCCCN)NC(=O)[C@H](Cc1ccccc1)NC(=O)[C@H](CC(C)C)NC(=O)[C@H](CCCCN)NC(=O)[C@H](Cc1c[nH]c2ccccc12)NC(=O)[C@@H](N)CCCCN)C(=O)NCC(=O)N[C@@H](CCCCN)C(=O)N[C@H](C(=O)N[C@@H](CC(C)C)C(=O)N[C@@H](CCCCN)C(=O)N[C@H](C(=O)N[C@@H](CC(C)C)C(=O)O)C(C)C)C(C)C [KWKLFKKIGKVLKVL]
MIC (Escherichia coli BL21): 0.707 µM (≈ 1.29 µg/mL) | MIC [19]: 1.41 µM (≈ 2.59 µg/mL) | MIC [20]: 1.41 µM (≈ 2.59 µg/mL) | MIC [21]: 4 µM (≈ 7.31 µg/mL) | MIC [22]: 0.5 µM (≈ 0.914 µg/mL)

CC[C@H](C)[C@H](NC(=O)[C@H](CCCN=C(N)N)NC(=O)CNC(=O)[C@H](CC(C)C)NC(=O)[C@@H](NC(=O)[C@H](C)NC(=O)[C@H](CCCN=C(N)N)NC(=O)CNC(=O)[C@H](C)NC(=O)CNC(=O)[C@H](CCCN=C(N)N)NC(=O)[C@H](CCSC)NC(=O)[C@H](CCCN=C(N)N)NC(=O)[C@@H](NC(=O)[C@H](Cc1c[nH]c2ccccc12)NC(=O)[C@H](CC(C)C)NC(=O)[C@H](CCC(=O)O)NC(=O)[C@H](CCCN=C(N)N)NC(=O)[C@H](CC(C)C)NC(=O)[C@@H](N)CC(C)C)[C@@H](C)O)C(C)C)C(=O)N[C@@H](CCCN=C(N)N)C(=O)NCC(=O)N[C@@H](CC(C)C)C(=O)N[C@@H](CC(C)C)C(=O)O [LLRELWTRMRGAGRAVLGRIRGLL]
MIC [23]: 0.94 µM (≈ 2.6 µg/mL) | MIC [24]: 0.94 µM (≈ 2.6 µg/mL) | MIC [25]: 15 µM (≈ 41.5 µg/mL) | MIC [26]: 1.88 µM (≈ 5.2 µg/mL)

CC[C@H](C)[C@H](NC(=O)[C@H](CCCN=C(N)N)NC(=O)[C@H](CCC(N)=O)NC(=O)[C@@H](NC(=O)[C@@H](NC(=O)[C@H](CCCN=C(N)N)NC(=O)[C@H](CCCCN)NC(C)=O)[C@@H](C)CC)C(C)C)C(=O)N[C@@H](CCCCN)C(=O)N[C@@H](CC(=O)O)C(=O)N[C@@H](Cc1ccccc1)C(=O)N[C@@H](CC(C)C)C(=O)N[C@@H](CCCN=C(N)N)C(=O)N[C@@H](C)C(=O)NCC(=O)N1CCC[C@H]1C(=O)N[C@H](C(=O)N[C@@H](CCCCN)C(=O)N[C@@H](CC(=O)O)C(=O)N[C@@H](Cc1ccccc1)C(=O)N[C@@H](CC(C)C)C(=O)N[C@@H](CCCN=C(N)N)C(N)=O)[C@@H](C)CC [KRIVQRIKDFLRAGPIKDFLR]
MIC [27]: 0.778 µM and 0.389 µM

CC[C@H](C)[C@H](NC(=O)[C@@H](NC(=O)[C@H](Cc1ccccc1)NC(=O)[C@H](CCCCN)NC(=O)[C@@H]1CCCN1C(=O)[C@H](CCCCN)NC(=O)[C@H](CCC(N)=O)NC(=O)[C@@H]1CCCN1C(=O)[C@H](CCCN=C(N)N)NC(=O)[C@H](CCCN=C(N)N)NC(=O)[C@@H](NC(=O)[C@H](CCCN=C(N)N)NC(=O)[C@H](Cc1c[nH]c2ccccc12)NC(=O)[C@H](CC(C)C)NC(=O)[C@H](CC(C)C)NC(=O)[C@H](CC(=O)O)NC(=O)[C@@H](NC(=O)[C@@H](NC(=O)[C@@H](N)CCCN=C(N)N)[C@@H](C)CC)[C@@H](C)CC)C(C)C)C(C)C)C(=O)N[C@H](C(=O)N[C@@H](Cc1c[nH]c2ccccc12)C(=O)N[C@H](C(=O)N[C@@H](CCCN=C(N)N)C(=O)O)C(C)C)C(C)C [RIIDLLWRVRRPQKPKFVIVWVR]
MIC [28]: 0.524 µM (≈ 1.56 µg/mL) | MIC (Escherichia coli E44813): 4.2 µM (≈ 12.5 µg/mL) | MIC [29]: ≥ 42 µM | MIC [30]: 1.05 µM (≈ 3.12 µg/mL) | MIC [31]: 0.262 µM (≈ 0.78 µg/mL) | MIC [32]: 0.524 µM (≈ 1.56 µg/mL) | MIC [33]: 25.2 µM (≈ 75 µg/mL) | MIC [9]: 0.0084 µM (≈ 0.025 µg/mL) | MIC [34]: 8.4 µM (≈ 25 µg/mL)
